Converted amounts (≈) assume the structure as drawn. “And” between values parts separate entries of the source, which are not always exact repeats. Equal values may be shown once. Read-outs that look alike come from different tables or passages of the source.
Assays:
[1] = In vivo pharmacokinetics after intratracheal instillation; set-up: species or system mouse; settings: for Kp / Cmax / AUC(0-t) / MRT / Tmax / half-life / CL/F / Vd/F / AUC: male, CD1, mouse, inhaled or intranasal; for Kp: BALF and plasma, read-out: AUC ratio BALF/Plasma; for Vd/F: read-out: Vz/F_obs
Procedure: 6.2. PK Sample Preparation and Analysis
Groups of male CD1 mice (25-30 g, Charles River UK) were housed in groups of up to 6 and maintained under a 12 h light/dark cycle with free access to food and water. Temperature and humidity were controlled according to U.K. HO regulations. On the day of the study, mice were briefly anaesthetized with isoflurane before suspending the mouse by its upper incisors on a board held at an angle of approx. 45 degrees. Mice were then dosed intratracheally with the compound (4 or Tob) at the designated does formulated in ethanol/tyloxapol/glycerol/phosphate-buffered saline (PBS) [10:1:5:84] in a 1 mL/kg dosing volume up to a maximum of 30 µL per mouse. A laryngoscope was used to facilitate dosing.
Animals were allowed to recover before replacing into their home cages. […]
Blood samples were placed in tubes on ice containing EDTA anticoagulant. After gentle mixing, samples were centrifuged (10,000 rpm x 3 min) and two 50 μL aliquots taken into fresh tubes that were immediately frozen on dry ice. Following blood sample collection, tracheas were exposed and a small incision made. An 18 Gauge plastic tube was then inserted through the incision into the trachea and tied in place. Aliquots of 0.8 mL of sterile saline were then infused into and then withdrawn from the lungs and the collected bronchoalveolar lavage (BAL) sample placed into a tube. This process was repeated two more times, and the samples from each mouse pooled. The resulting samples were weighed and mixed, before a 1 mL aliquot was taken for analysis and frozen on dry ice.
Immediately after collecting the final BALF sample, lung samples were excised and excess tissue removed, before rinsing in saline, blotting and weighing. Samples were then snap frozen by immersion in liquid nitrogen. All samples were stored at -20 °C until sent for […]
All PK plasma samples were analyzed via HPLC-MS/MS using an Agilent 1290 Infinity II HPLC system coupled to an AB Sciex QTrap 6500plus mass spectrometer. First, a calibration curve was prepared by spiking different concentrations of compound 4 or Tob (Fa. Sigma) into plasma, homogenized lung from CD-1 mice or 0.9% sodium chloride solution as matrix for broncheoalveolar lavage fluid (BALF). The lower limits of quantification are indicated in Table S5. Caffeine was used as internal standard. In addition, quality control samples (QCs) were prepared for 4 and Tob in plasma, homogenized lung and 0.9% sodium chloride […]
The following extraction procedure was used for 4: plasma: 7.5 µL of a plasma sample (calibration samples, QCs or PK samples) was extracted with 37.5 µL of acetonitrile containing 12.5 ng/mL caffeine as internal standard for 10 min at 2000 rpm on an Eppendorf MixMate® vortex mixer. Lung: homogenized samples were diluted to 50 mg/mL lung tissue in 0.9% sodium chloride solution. A 50 µL of a lung sample (calibration samples, QCs or PK samples) was extracted with 15 µL water containing 10% formic acid and 50 µL of acetonitrile containing 12.5 ng/mL caffeine as internal standard for 10 min at 2.000 rpm on an Eppendorf MixMate® vortex mixer. BALF: 200 µL of methanol were added to 100 µL of a BALF sample (calibration samples, QCs or PK samples). Samples were concentrated in an Eppendorf concentrator until dryness at 30 °C. A 30 µL of water containing 10% formic acid

[2] = Kinetic turbidimetric solubility assay; type: physicochemical; settings: PBS; for solubility kinetic at 5 min: aqueous buffer, kinetic from dmso stock, read-out: Kinetic solubility S kin
Procedure: 5.4. Kinetic Turbidimetric Solubility Assay
The desired compounds were sequentially diluted in DMSO in a 96-well plate. A 3 µL of each well were transferred into another three 96-well plates, followed by addition of 147 µL of PBS. Plates were shaken for 5 min at 600 rpm at room temperature (r.t.), and the absorbance at 620 nm was measured. Absorbance values were normalized by blank […]
subtraction and plotted using GraphPad Prism 8.4.2 (GraphPad Software, San Diego, CA, […]

[3] = target: T1, 5-HT2A (Homo sapiens, UniProt P28223); experiment: CEREP off-target panel, agonist radioligand; type: binding; settings: @10µM
T1 construct: Eurofins Discovery (SafetyScreen44 Panel, Cerep) P270
Procedure: (§1) 5. In vitro ADME/T and Safety Pharmacology
(§2) 5.1. CEREP off-targets assay
(§3) Experiments towards possible off-target effects were conducted following Eurofins Discovery protocol. Detailed information about the assays can be found in: https://www.eurofinsdiscoveryservices.com/catalogmanagement/viewitem/SafetyScreen44- […]
(§4) Table S3. Possible CEREP off-targets. entry off-target QSI 4 QSI 17 Assay
(§5) (%binding (%binding method
(§6) (1 picture or pasted object on this page, not shown here)

[4] = system: AR; experiment: CEREP off-target panel, agonist radioligand; type: binding; settings: @10µM
Procedure: as §1, §2, §3, §4, §5, §6

[5] = target: T2, 5-HT2B (Homo sapiens, UniProt P41595); experiment: CEREP off-target panel, agonist radioligand; type: binding; settings: @10µM
T2 construct: Eurofins Discovery (SafetyScreen44 Panel, Cerep) P270
Procedure: as §1, §2, §3, §4, §5, §6

[6] = Metabolic stability, rat liver S9; type: in vitro ADME; settings: pooled liver S9 fraction, Table S4, n=1, read-out: t1/2 rat liver S9
Procedure: For the evaluation of combined phase I and phase II metabolic stability, the compound (1 μM) was incubated with 1 mg/mL pooled liver S9 fraction from the respective species (Xenotech), […]
2 mM NADPH, 1 mM UDPGA, 10 mM MgCl2, 5 mM GSH and 0.1 mM PAPS at 37 °C for […]
0, 5, 15, 30 or 60 min. The metabolic stability of Testosterone (1 μM) and verapamil (1 μM) […]
were determined in parallel to confirm the enzymatic activity of the S9 fraction. The […]
incubation was stopped by precipitation of S9 enzymes with 2 volumes of cold acetonitrile […]
containing internal standard (750 nM Diphenhydramine). Samples were stored on ice for 10 […]
min and precipitated protein was removed by centrifugation (10 min, 4 °C, 17,000 g).
Concentration of the remaining test compound at the different time points was analyzed by […]
LC-MS/MS (TSQ Quantum Access MAX, Thermo Fisher, Dreieich, Germany) and used to […]
determine half-life (t1/2). Stability of compound 4 in further S9 fractions are summarized in […]
Table S4. Metabolic stability studies in various S9 fractions. […]

[7] = BALF, 0.5 mg kg^−1, mice, intratracheal, BALF, read-out: Cmax BALF
[8] = BALF, mice, intratracheal, Figure 3B, read-out: BALF: AUC0-t
[9] = ELF (calculated from BALF), 0.5 mg kg^−1, mice, intratracheal, ELF calculated from BALF, read-out: Cmax ELF
[10] = 0.5 mg kg^−1, mice, intratracheal, BALF, read-out: AUC0-t BALF
[11] = 0.5 mg kg^−1, mice, intratracheal, BALF, read-out: MRT BALF
[12] = 0.5 mg kg^−1, mice, intratracheal, BALF, read-out: Tmax BALF
[13] = 0.5 mg kg^−1, mice, intratracheal, ELF calculated from BALF, read-out: AUC0-t ELF
[14] = 0.5 mg kg^−1, mice, intratracheal, ELF calculated from BALF, read-out: MRT ELF
[15] = 0.5 mg kg^−1, mice, intratracheal, ELF calculated from BALF, read-out: Tmax ELF
[16] = 0.5 mg kg^−1, mice, intratracheal, ELF calculated from BALF, read-out: t1/2 ELF (converted)
[17] = 0.5 mg kg^−1, mice, intratracheal, lung tissue, read-out: MRT lung
[18] = 0.5 mg kg^−1, mice, intratracheal, lung tissue, read-out: Tmax lung
[19] = 0.5 mg kg^−1, mice, intratracheal, lung tissue, read-out: t1/2 lung (converted)
[20] = 0.5 mg kg^−1, mice, intratracheal, plasma
[21] = 0.5 mg kg^−1, mice, intratracheal, plasma, read-out: AUC0-t plasma
[22] = 0.5 mg kg^−1, mice, intratracheal, plasma, read-out: MRT plasma
[23] = 0.5 mg kg^−1, mice, intratracheal, plasma, read-out: Tmax plasma
[24] = mice, intratracheal (QSI 4 0.5 mg kg^−1), plasma, read-out: t1/2 plasma (converted)
[25] = mice, intratracheal, BALF, read-out: t1/2 BALF (converted)
[26] = plasma, 0.5 mg kg^−1, mice, intratracheal, plasma, read-out: Cmax plasma
[27] = plasma, mice, intratracheal, Figure 3B, read-out: Plasma: AUC0-t

T2 sequence (P41595 whole entry): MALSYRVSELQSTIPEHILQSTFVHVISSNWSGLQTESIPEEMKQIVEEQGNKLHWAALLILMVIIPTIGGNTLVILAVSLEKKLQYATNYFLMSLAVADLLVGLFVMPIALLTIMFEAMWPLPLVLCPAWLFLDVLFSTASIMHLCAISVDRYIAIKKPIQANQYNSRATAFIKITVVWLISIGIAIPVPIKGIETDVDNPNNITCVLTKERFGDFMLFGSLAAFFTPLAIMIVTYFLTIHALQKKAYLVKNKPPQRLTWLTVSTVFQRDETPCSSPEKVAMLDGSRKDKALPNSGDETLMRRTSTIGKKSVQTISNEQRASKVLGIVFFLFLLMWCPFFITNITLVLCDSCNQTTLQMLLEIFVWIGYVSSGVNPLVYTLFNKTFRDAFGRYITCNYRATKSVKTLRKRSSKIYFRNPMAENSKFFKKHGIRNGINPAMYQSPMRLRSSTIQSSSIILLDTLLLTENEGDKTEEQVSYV
T1 sequence (P28223 whole entry): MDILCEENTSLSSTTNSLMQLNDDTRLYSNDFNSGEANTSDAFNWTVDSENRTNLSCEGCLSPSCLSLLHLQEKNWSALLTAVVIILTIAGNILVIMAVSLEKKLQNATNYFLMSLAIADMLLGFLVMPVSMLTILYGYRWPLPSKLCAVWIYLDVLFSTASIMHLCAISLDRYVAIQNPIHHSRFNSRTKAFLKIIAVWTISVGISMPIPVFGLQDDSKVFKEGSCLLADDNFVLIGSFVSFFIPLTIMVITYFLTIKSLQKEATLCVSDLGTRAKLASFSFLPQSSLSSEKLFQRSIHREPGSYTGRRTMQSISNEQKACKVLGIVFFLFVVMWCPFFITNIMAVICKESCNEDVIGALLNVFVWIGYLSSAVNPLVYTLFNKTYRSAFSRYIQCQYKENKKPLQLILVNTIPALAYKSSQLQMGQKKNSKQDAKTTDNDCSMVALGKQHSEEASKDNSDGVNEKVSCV

SMILES | Kp ([1]; mice, intratracheal) | Cmax [1, 7] | AUC(0-t) [1, 8] [ng·h/mL] | Cmax [1, 9] | AUC(0-t) [1, 10] | MRT [1, 11] [min] | Tmax [1, 12] [min] | AUC(0-t) [1, 13] | MRT [1, 14] [min] | Tmax [1, 15] [min] | half-life [1, 16] [min] | MRT [1, 17] [min] | Tmax [1, 18] [min] | half-life [1, 19] [min] | CL/F [1, 20] [mL/min/kg] | AUC(0-t) [1, 21] | MRT [1, 22] [min] | Tmax [1, 23] [min] | Vd/F [1, 20] [L/kg] | half-life [1, 24] [min] | other results
NC[C@H]1O[C@H](O[C@H]2[C@H](O)[C@@H](O[C@H]3O[C@H](CO)[C@@H](O)[C@H](N)[C@H]3O)[C@H](N)C[C@@H]2N)[C@H](N)C[C@@H]1O [Tobramycin, tobramycin] | 3.2 | 215 ng/mL and 460 nM | 268 ± 27 | 38.8 ng/mL and 83 nM | 268 ng·h/mL and 0.57 µM·h | 84 ± 6 | 30 | 57.5 ng·h/mL and 0.12 µM·h | 90 ± 12 | 30 | 33.6 ± 12 | 116 | 30 | 67.8 | 45.3 ± 26.6 | 83.2 ng·h/mL and 0.178 µM·h | 87 ± 72 | 30 | 2.25 ± 1.6 | 45.6 ± 48 | half-life [1, 25]: 49.2 ± 6 min; Cmax [1, 26]: 89.5 ng/mL and 191 nM; AUC(0-t) [1, 27]: 83.2 ± 35.3 ng·h/mL; Cmax BALF ([1]; mice, intratracheal, BALF): 215.4 ± 50 ng/mL
COc1ccc(-n2cc(CNc3ccnc(C(F)(F)F)c3)nn2)cc1Cl [Compound 17] | – | – | – | – | – | – | – | – | – | – | – | – | – | – | – | – | – | – | – | – | Kinetic solubility S kin [2]: 64.1 µM; solubility kinetic at 5 min [2]: 64 µM (≈ 24.6 µg/mL); % binding, 5-HT2A [3]: 22.02%; % binding, AR [4]: 57.04%; % binding, 5-HT2B [5]: 73.79%
FC(F)(F)c1cc(NCc2cn(-c3ccc(Oc4ccccc4)cc3)nn2)ccn1 [Compound 4] | 86.9 | 3770 ng/mL and 9.2 µM | 4840 ± 2180 | 1290 ng/mL and 3.1 µM | 4840 ng·h/mL and 11.8 µM·h | 94.2 ± 6 | 30 | 3100 ng·h/mL and 7.5 µM·h | 96.6 ± 66 | 100 ± 120 | 33 ± 18 | 76.2 ± 24 | 30 | 64.8 ± 30 | 157 ± 55.5 | 55.8 ng·h/mL and 0.135 µM·h | 72 ± 6 | 30 | 10.5 ± 1.2 | 51.6 ± 24 | half-life at 1 μM [6]: 24.2 min; solubility kinetic at 5 min [2]: 7.7 µM (≈ 3.17 µg/mL); % binding, 5-HT2A [3]: 65.15%; % binding, AR [4]: -10.10%; % binding, 5-HT2B [5]: 55.25%; Cmax ([1]; BALF, 0.5 mg/kg, mice, intratracheal 0.5 mg kg^−1, BALF, read-out: C max in BALF): 3770 ± 2660 ng/mL; AUC ([1]; mice, intratracheal 0.5 mg kg^−1, BALF, read-out: AUC0‐t BALF): 4840 ± 2180 ng·h/mL; AUC ([1]; mice, intratracheal 0.5 mg kg^−1, ELF, read-out: AUC0‐t ELF): 3100 ± 330 ng·h/mL; AUC ([1]; mice, intratracheal 0.5 mg kg^−1, plasma, read-out: AUC0‐t plasma): 55.8 ± 21.3 ng·h/mL; half-life [1, 25]: 43.2 ± 30 min; Cmax [1, 26]: 62.6 ng/mL and 151 nM; Cmax ([1]; plasma, 0.5 mg/kg, mice, intratracheal 0.5 mg kg^−1, plasma, read-out: plasma C max): 62.6 ± 45.7 ng/mL; AUC(0-t) [1, 27]: 55.8 ± 21.3 ng·h/mL

Source: paper PMC8224453, “A New PqsR Inverse Agonist Potentiates Tobramycin Efficacy to Eradicate Pseudomonas aeruginosa Biofilms” (Advanced Science, 2021)
